Assay results reported in US9238015B2 (NESTEC S.A., priority 2012, dated 2016).

How the values were obtained:
[1] = test system: Nrf2; assay: Nrf2 reporter assay (AREc32 cells, ARE-luciferase); type: cell-based; settings: 24 h, dose range 0 to 200 μM (FIG. 3)
Experimental: Activation of Nrf2 was measured using an Nrf2 reporter assay. This assay is based on the AREc32 cell line, from CRX biosciences (Dundee, Scotland), a stably transfected MCF7 (breast adenocarcinoma) cell line that contains a luciferase gene construct under the control of the ARE. Luciferase is an enzyme which digests luciferin and produces […]. Anti-oxidative molecules such as Tert-butylhydroquinone (TBHQ) induce luciferase transcription via the activation of Nrf2 that binds to ARE. Luciferase activity is determined using a luciferase kit form Promega (Madison, Wis.). The luciferase activity is proportional to the activation of Nrf2. […] The luciferase activity and the cell viability (ATP measurements) were determined using the Luciferase and Cell Titer-Glo kits from Promega. For each run the luciferase activities, measured in Relative Light Units (RLU), of all the wells were normalized with the mean of the luciferase activity of the cells only of all the plates. Among all the samples tested the normalization procedure was found not to affect the data and this observation permits the comparison of samples measured in different runs. For each sample the Nrf2 activation was calculated as follows: […] […] The luciferase content per sample allows a semi quantification of the Nrf2 activation by reflecting the amount of the Nrf2 activating molecule. […]

[2] = test system: AREc32 cells; assay: AREc32 cell viability (ATP quantification, Cell Titer-Glo); type: cell-based; settings: 24 h
Experimental: To determine the Nrf2 activation the samples were tested on AREc32 cells (seeded in 96 well plates) using 10 independent dilutions (1/2, 1/4, 1/6, 1/10, 1/15, 1/20, 1/25, 1/30, 1/40 and 1/50) and incubated for 24 hours at 37° C. in a 5% CO2/air incubator. The luciferase activity and the cell viability (ATP measurements) were determined using the Luciferase and Cell Titer-Glo kits from Promega.
The cell viability was also measured using a cell Titer-Glo kit (ATP quantification).

[3] = test system: HT-29 clone 34 cells; assay: HT-29 clone 34 cell viability (ATP, Cell Titer-Glo); type: cell-based, human; settings: HT-29 clone 34 cells (FIG. 5)
Experimental: 10000 cells/well were seeded in 200 μl of culture medium in flat bottom white border 96 well plates (Greiner Bio One, Kremsmuenster, Austria). […] 20 μl of experimental medium containing (or not) LPS 055:B5 or rhTNF-α (100 and 10 ng/ml final, respectively) was added and the plates were incubated for 24 hours at 37° C. in a 5% CO2/air incubator.
Cell viability was determined by measuring ATP using Cell Titer-Glo kit (Promega). Briefly, remaining adherent HT-29 clone 34 cells were incubated for 10 min at room temperature under horizontal shaking (250 rpm) with 120 μl of Cell Titer-Glo reagent (pre-diluted twice in 1×PBS) and the luminescence was measured using Polarstar microplate reader (BMG, Offenburg, Germany) for 1000 ms with a gain value set to 3500.

[4] = test system: THP-1 blue cells; assay: THP-1 blue cell viability (Cell Titer-Glo); type: cell-based, human; settings: THP-1 blue cells (FIG. 6)
Experimental: 200000 cells/well were seeded in 100 μl of culture medium in 96 well flat bottom transparent plates. […] 20 μl of culture media containing (or not) LPS 055:B5 (Sigma) (100 ng/ml final) was added and the plates were incubated for 16 hours at 37° C. in a 5% CO2/air incubator.
Cell culture supernatants were carefully transferred to 96 well-plates for NF-κB activity measurement which is proportional to the level of secreted alkaline phosphatase. Briefly, 100 μl of supernatants were mixed with 150 μl of QuantiBlue (Invivogen) in a 96 well-plates incubated for 3 h at 37° C. before OD measurements at 620 nm with Sunrise microplate reader (Tecan, Mannedorf, Switzerland). Cell viability was determined using Cell Titer-Glo kit as described above.

[5] = test system: NF-κB; assay: NF-κB activity (SEAP and IL-8 production) in HT-29 clone 34 cells; type: cell-based, human
Experimental: Two in-vitro systems were used: human colonic cells (HT-29 clone 34) and human monocytes/macrophages (THP-1 blue cells). The human colonic adenocarcinoma HT-29 clone 34 cell line (passage 42-50) are adherent cells stably transfected with a NF-κB/SEAP reporter plasmid. They were cultured in DMEM high glucose (4.5 g/L) (Invitrogen) containing 1% of stable L-glutamine and supplemented with 10% of heat inactivated (one hour at 56° C.) Foetal Calf Serum (FCS) (Bioconcept, Allschwil, Switzerland), 1% of Penicillin/Streptomycin (Sigma) and 500 μg/ml of Geneticin (PAA, Pasching, Austria) at 37° C. in a 5% CO2/air incubator. Culture medium was renewed every two days until the cell monolayer reached ˜90% confluence. Cells were sub-cultured using 1× Trypsin/EDTA (Sigma). 10000 cells/well were seeded in 200 μl of culture medium in flat bottom white border 96 well plates (Greiner Bio One, Kremsmuenster, Austria). […] Cell culture supernatants were then collected for measurement of NF-κB activity (determination of secreted alkaline phosphatase and IL-8 production) using Phosphalight (Applied Biosystems) and IL-8 singleplex (Meso Scale, Gaithersburg, Md.) kits, respectively.

For `CC(=O)/C=C/C(=O)O` [4-oxo-2-pentenoic acid], the Nrf2 activation [1] was “strongly activate Nrf2 in a dose dependent manner”, the “doses at which viability of AREc32 cells was not affected” value [2] was “lower than 70 μM” and the “doses showing a decrease in cell viability” value [3] was over 50 µM. The “doses toxic to cells” value [4] was “higher than 75 μM”, the “inhibition of NF-κB activity” value ([5]; HT-29 clone 34 cells stimulated with LPS (FIG. 5)) was “inhibits NF-κB activity in a dose dependent manner” and the “NF-κB activity (SEAP or IL-8 detection) in the absence of LPS” value ([5]; HT-29 clone 34 cells, no LPS, doses tested 3 to 400 μM) was “no NF-κB activity was observed”.
